Calls of active or inactive are those of the source.
Columns and labels:
[1] = HEK-293T viability loss after treatment – luminescence, T-cell screen hits, cytotoxicity control for TCR NF-kB inhibitor project, dose response (AID 489026); format: functional, cell-based;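 note: cells exposed to compound about 14 hours before the viability readout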
[2] = tested on: INS1; test: INS-1E survival protection against cytokine death – cell-based, luminescence, retest, dose response (AID 449756); format: functional; conditions: Rattus norvegicus;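 note: cell death triggered by IL-1 beta plus TNF-alpha plus IFN-gamma mixture; protective hits raise ATP signal compared with cytokine alone wells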
[3] = target: T1, COUP transcription factor 2 (Homo sapiens, UniProt P24468); test: Luminescence-based cell-based high throughput dose response assay to identify inhibitors of COUP-TFII (NR2F2).; format: functional;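 note: HEK293 cells transiently cotransfected with COUP-TFII expression vector and reporter; luciferase reporter luminescence driven by COUP-TFII from the pX2-168 reporter plasmid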
T1 sequence (P24468 whole entry): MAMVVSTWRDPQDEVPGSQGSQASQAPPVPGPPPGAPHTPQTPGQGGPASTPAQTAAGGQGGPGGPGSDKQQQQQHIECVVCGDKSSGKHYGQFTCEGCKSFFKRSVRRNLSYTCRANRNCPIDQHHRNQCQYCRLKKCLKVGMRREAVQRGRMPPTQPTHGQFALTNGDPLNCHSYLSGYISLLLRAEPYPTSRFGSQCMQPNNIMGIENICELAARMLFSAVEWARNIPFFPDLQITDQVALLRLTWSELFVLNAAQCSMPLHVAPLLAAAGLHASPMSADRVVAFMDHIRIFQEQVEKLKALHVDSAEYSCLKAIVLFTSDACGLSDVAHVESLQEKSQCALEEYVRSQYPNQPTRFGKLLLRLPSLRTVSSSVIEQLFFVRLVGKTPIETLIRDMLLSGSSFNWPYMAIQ

[4] = NIH-3T3 fibroblast cytotoxicity, dose response, cytotoxicity control, cell-based, fluorescence, Alamar Blue, secondary assay (AID 2327); format: functional;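 note: NIH-3T3 mouse fibroblasts cultured with fluconazole at 8 µg/mL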
[5] = target: T2, Heat shock factor protein 1 (Mus musculus, UniProt P38532); test: decrease of HSF1-responsive luciferase luminescence – cell-based, NIH3T3, dose retest, confirmation (AID 2382); format: functional;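 note: NIH3T3 fibroblasts with HSF1-driven luciferase reporter stressed by proteasome inhibitor MG132; luminescence from HSF1-driven luciferase expression after 8 hours of MG132 stress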
T2 sequence (P38532 whole entry): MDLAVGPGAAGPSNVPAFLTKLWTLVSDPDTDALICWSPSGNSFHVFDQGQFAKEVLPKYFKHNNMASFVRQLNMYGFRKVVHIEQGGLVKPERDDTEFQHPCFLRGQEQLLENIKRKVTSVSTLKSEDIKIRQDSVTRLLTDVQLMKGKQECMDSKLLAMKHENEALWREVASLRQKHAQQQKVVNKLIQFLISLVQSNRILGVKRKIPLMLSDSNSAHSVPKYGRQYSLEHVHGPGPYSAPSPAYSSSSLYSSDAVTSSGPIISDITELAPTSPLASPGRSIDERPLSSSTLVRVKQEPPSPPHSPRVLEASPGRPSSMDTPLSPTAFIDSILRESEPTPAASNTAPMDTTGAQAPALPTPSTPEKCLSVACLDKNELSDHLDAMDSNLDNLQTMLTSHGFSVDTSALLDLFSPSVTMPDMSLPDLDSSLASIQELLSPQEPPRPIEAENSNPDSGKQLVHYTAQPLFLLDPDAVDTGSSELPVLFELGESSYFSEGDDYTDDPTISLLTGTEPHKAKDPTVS

[6] = fluconazole-exposed Candida albicans growth modulators – fluorescence, retest, confirmation (AID 2467); format: functional, cell-based
[7] = target: T3, Mannose-6-phosphate isomerase (Homo sapiens, UniProt P34949); test: MPI inhibition at elevated mannose 6-phosphate – biochemical, fluorescence intensity, high mannose 6-phosphate, primary screen (AID 1220)
T3 sequence (P34949 whole entry): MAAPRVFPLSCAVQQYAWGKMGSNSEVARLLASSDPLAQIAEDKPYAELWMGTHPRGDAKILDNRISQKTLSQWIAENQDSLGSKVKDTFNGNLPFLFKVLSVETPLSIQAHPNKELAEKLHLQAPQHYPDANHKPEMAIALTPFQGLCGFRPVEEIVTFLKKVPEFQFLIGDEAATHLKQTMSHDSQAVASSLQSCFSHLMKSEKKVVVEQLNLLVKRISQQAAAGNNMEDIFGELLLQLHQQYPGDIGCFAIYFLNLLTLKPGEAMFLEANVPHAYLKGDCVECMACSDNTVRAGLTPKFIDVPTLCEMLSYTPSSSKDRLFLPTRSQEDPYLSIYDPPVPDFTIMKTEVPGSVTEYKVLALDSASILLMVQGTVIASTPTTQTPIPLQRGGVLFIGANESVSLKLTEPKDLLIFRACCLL

[8] = target: Paired box protein Pax-8 (Homo sapiens, UniProt Q06710); test: PAX8 transcriptional activity inhibition in RMG-I – RMG-I cells, luciferase, cherry-pick, dose response (AID 687027); format: functional, cell-based;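 note: luciferase reporter driven by Pax8 target thyroperoxidase promoter measured by SteadyGlo luminescence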
[9] = Luminescence-based cell-based high throughput dose response assay to identify activators of the DAF-12 from the parasite S. stercoralis (ssDAF-12).; format: functional
[10] = target: T4, Oxysterols receptor LXR-beta (Homo sapiens, UniProt P55055); format: functional, cell-based;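 note: Cell-based luminescence dose-response assay of agonist activity at LXR, run as a confirmatory counterscreen to a daf-12 agonist screen; HEK293 cells with Gal4-LXR fusion and GAL4-driven luciferase reporter; agonist potency from rising luciferase signal of a Gal4-LXR reporter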
T4 sequence (P55055 whole entry): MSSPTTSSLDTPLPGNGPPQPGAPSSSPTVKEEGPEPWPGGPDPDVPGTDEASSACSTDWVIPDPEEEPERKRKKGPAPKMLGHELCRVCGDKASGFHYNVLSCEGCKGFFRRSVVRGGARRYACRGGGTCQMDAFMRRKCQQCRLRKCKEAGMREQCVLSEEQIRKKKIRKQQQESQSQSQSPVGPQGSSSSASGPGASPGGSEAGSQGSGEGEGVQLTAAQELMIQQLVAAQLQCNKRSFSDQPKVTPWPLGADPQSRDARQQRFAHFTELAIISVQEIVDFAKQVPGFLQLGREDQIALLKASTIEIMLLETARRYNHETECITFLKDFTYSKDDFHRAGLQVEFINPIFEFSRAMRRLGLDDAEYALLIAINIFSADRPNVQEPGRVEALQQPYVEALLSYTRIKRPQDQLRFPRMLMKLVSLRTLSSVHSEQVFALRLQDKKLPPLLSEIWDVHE

[11] = cells
[12] = A549 cell cytotoxicity, dose response, cytotoxicity control, plate reader, cherry-pick, antagonist series (AID 743412); format: functional, cell-based
[13] = toxicity toward HepG2 liver cells – cell-based, plate reader, cherry-pick, antagonist series, cytotoxicity control, dose response (AID 743416); format: functional
[14] = blockers of bursicon-stimulated LGR2 cAMP reporter – cell-based, HEK293, CRE-luciferase reporter, cherry pick, set 2, dose response (AID 743343); format: functional;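 note: transfected cells were stimulated with diluted bursicon conditioned medium after compound addition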
[15] = blockade of melanocortin 4 receptor signaling – cell-based, plate reader, cherry pick, counter-screen for LGR2 antagonist project, dose response (AID 743444); format: functional;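 note: transfected HEK 293 cells stimulated with alpha-MSH peptide; potency of inhibitors of the alpha-MSH evoked signal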
[16] = viability loss in HEK293 cells – cell-based, plate reader, cherry-picked samples, cytotoxicity control, dose response (AID 743446); format: functional
[17] = viability of PTEN-deleted HCT116 cells – cell-based, HCT116 PTEN knockout, dose response (AID 1047); format: functional;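 note: HCT116 colon tumor cells with PTEN knocked out; cells exposed to compound for 60 hours before readout; potency for loss of cell viability measured by luminescence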
[18] = viability of HCT116 lacking mutant beta-catenin – cell-based, human colon tumor, dose response (AID 1045); format: functional;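 note: HCT116 colon tumor cells with beta catenin knocked out; cells exposed to compound for 60 hours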
[19] = target: T5, Long-chain-fatty-acid--AMP ligase FadD28 (Mycobacterium tuberculosis, UniProt P9WQ59); test: Fluorescence polarization aasay to screen for inhibitors that compete for the binding of FadD28 to a bisubstrate Measured in Biochemical System Using Plate Reader - 2147-01_Inhibitor_Dose_CherryPick_Activity.; format: functional, Mycobacterium tuberculosis H37Rv
T5 sequence (P9WQ59 whole entry): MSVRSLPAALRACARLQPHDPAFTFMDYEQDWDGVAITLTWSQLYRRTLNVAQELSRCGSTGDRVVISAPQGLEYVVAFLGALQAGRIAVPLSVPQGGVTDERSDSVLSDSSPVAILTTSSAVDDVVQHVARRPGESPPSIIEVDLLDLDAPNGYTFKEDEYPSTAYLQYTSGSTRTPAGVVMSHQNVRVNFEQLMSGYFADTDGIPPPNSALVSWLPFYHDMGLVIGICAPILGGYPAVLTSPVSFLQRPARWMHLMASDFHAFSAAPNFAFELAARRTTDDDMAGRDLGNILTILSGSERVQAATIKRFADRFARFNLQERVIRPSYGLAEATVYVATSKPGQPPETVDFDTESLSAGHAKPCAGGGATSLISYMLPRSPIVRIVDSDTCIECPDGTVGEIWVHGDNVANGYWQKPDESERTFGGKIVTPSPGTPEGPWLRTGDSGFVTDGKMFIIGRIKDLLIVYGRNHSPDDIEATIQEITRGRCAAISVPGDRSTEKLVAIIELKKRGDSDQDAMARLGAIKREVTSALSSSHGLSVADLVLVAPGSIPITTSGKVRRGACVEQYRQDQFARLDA

[20] = viability loss in HeLa cells – cytotoxicity control for MgcRacGAP inhibitor project, dose response (AID 624300); format: functional
[21] = target: T6, Rac GTPase-activating protein 1 (Homo sapiens, UniProt Q9H0H5); test: blockers of MgcRacGAP-driven Rac1 GTP hydrolysis – biochemical, ADP Hunter fluorescence, primary and confirmatory, confirmation (AID 624330); format: functional
T6 sequence (Q9H0H5 whole entry): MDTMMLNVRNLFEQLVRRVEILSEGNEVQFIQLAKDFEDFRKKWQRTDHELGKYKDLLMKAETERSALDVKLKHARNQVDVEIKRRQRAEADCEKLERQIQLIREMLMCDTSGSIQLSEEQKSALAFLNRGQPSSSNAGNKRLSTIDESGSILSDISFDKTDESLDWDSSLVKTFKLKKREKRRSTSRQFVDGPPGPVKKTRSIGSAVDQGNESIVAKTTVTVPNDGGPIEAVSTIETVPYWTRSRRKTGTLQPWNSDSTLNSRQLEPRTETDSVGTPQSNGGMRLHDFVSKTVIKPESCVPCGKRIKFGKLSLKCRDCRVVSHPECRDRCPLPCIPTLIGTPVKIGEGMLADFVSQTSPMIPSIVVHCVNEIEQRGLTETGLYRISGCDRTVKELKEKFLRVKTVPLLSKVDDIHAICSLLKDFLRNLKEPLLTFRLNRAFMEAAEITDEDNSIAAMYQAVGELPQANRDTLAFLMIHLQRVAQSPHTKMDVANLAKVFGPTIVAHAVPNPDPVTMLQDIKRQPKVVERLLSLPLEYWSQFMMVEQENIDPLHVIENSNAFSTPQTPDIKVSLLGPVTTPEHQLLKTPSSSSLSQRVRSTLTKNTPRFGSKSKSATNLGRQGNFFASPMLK

[22] = target: Cytochrome P450 3A4 (Homo sapiens, UniProt P08684);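 note: CYP3A4 tested as one member of a cytochrome P450 panel screen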
[23] = target: Cytochrome P450 2C9 (Homo sapiens, UniProt P11712)
[24] = A2780 cell killing – plate reader, dry powder samples, cytotoxicity control, dose response (AID 743046); format: functional, cell-based
[25] = OVCAR8 cell viability loss – plate reader, dry powder samples, PAX8 project, dose response (AID 743197); format: functional, cell-based; conditions: OVCAR-8

Sequence of Paired box protein Pax-8 (Q06710 whole entry): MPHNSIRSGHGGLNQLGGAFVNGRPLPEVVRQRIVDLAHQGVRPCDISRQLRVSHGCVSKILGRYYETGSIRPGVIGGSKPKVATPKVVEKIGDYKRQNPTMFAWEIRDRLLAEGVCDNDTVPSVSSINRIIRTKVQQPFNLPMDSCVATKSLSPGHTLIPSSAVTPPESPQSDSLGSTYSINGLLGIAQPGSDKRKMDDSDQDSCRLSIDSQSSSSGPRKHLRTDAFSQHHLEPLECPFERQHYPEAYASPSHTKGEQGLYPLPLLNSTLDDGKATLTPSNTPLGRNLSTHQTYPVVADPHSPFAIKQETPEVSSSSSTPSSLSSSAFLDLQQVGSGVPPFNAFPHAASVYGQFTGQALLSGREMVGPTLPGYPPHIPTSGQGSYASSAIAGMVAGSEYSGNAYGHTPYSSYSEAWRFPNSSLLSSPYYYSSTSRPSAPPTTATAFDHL
Sequence of Cytochrome P450 2C9 (P11712 whole entry): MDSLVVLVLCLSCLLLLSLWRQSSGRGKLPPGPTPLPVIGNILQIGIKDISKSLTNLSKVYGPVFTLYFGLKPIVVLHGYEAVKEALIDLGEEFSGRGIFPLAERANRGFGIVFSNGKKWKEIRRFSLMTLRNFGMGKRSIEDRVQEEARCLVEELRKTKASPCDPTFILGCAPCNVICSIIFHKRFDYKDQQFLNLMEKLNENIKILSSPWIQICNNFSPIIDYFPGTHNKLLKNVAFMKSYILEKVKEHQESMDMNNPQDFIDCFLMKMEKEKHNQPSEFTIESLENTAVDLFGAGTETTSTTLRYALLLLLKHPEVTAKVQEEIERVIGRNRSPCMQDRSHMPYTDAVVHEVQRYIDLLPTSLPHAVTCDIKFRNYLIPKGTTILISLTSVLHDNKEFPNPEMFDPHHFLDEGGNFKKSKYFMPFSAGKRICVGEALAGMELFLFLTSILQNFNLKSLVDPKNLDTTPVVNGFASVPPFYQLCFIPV
Sequence of Cytochrome P450 3A4 (P08684 whole entry): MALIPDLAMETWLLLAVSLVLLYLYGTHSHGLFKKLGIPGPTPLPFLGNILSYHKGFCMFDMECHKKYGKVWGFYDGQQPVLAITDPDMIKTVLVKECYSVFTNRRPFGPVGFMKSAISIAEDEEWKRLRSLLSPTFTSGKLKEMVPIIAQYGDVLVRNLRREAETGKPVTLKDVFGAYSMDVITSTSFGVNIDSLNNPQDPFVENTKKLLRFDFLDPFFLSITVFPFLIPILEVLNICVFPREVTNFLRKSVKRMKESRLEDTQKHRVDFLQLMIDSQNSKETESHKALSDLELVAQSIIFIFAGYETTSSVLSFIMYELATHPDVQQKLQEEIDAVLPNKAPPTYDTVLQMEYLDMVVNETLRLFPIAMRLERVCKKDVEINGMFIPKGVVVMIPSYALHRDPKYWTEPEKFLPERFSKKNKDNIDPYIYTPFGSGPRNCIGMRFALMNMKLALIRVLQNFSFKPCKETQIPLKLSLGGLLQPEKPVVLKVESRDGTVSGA

## Cc1nn(C)c(C)c1CN(Cc1nc(CCC(C)C)no1)C(C)C
[1]
  IC50: > 80 µM (inactive)
[2]
  AC50: 2.24 µM (active)
[3]
  IC50: 4.68 µM (active)

## Cc1cccc(NCc2ccc(O)c3ncccc23)c1C
[4]
  EC50: > 150 µM (inactive)
[5]
  EC50: > 195 µM (not active)
[6]
  EC50: > 38 µM (not active)
[7]
  IC50: > 50 µM (not active)
[8]
  AC50: 15 µM (active)

## Cc1ccc2[nH]c(-c3sc4nc(C)ccc4c3N)nc2c1
[9]
  IC50: > 67.6 µM (inactive)
[10]
  EC50: > 67.5 µM (inactive)
[11]
  EC50: > 67.5 µM (inactive)

## C[C@H](CO)N1C[C@H](C)[C@H](CN(C)Cc2ccc(C(F)(F)F)cc2)Oc2ccc(NC(=O)Nc3ccccc3)cc2C1=O
[12]
  AC50: 7.64 µM (active)
[13]
  AC50: > 47 µM (inactive)
[14]
  AC50: 27.4 µM (active)
[15]
  AC50: 20.2 µM (active)
[16]
  AC50: > 47 µM (inactive)

## Cn1c(N/N=C/c2c[nH]c3ccccc23)nc2ccccc21
[4]
  EC50: > 150 µM (inactive)
[6]
  EC50: > 38 µM (not active)
[17]
  EC50: 2.96 µM (active)
[18]
  EC50: 2.81 µM (active)
[19]
  AC50: 52.1 µM (active)
[20]
  CC50: 100 µM (active)
[21]
  IC50: 44.4 µM (active)
[22]
  AC50: 20 µM (inconclusive)
[23]
  AC50: 28.2 µM (inconclusive)

## O=C(C[C@@H]1CC[C@H]2[C@@H](COC[C@H](O)CN2C(=O)Nc2ccc(Cl)c(Cl)c2)O1)NCc1ccc(Cl)cc1
[8]
  AC50: 13.5 µM (active)
[24]
  AC50: 11.9 µM (active)
[25]
  AC50: > 70 µM (inactive)
